# From patent US20050228016A1, “TETRAHYDROQUINOLINES FOR MODULATING THE EXPRESSION OF EXOGENOUS GENES VIA AN ECDYSONE RECEPTOR COMPLEX” (priority 2002, published 2005)
# Key:
# [1] = test system: GAL4 DBD (1-147)-CfEcR(DEF)/VP16AD-βRXREF-LmUSPEF; details: CHO 27-63 clone, 48 h, average of two wells
# Text: GAL4 DBD (1-147)-CfEcR(DEF)/VP16AD-βRXREF-LmUSPEF: The wild-type D, E, and F domains from spruce budworm Choristoneura fumiferana EcR (“CfEcR-DEF”; SEQ ID NO: 1) were fused to a GAL4 DNA binding domain (“Gal4DBD1-147”; nucleotides 31 to 471 of SEQ ID NO: 2) and placed under the control of a phosphoglycerate kinase promoter (“PGK”; SEQ ID NO: 19). Helices 1 through 8 of the EF domains from Homo sapiens RXRβ and helices 9 through 12 of the EF domains of Locusta migratoria Ultraspiracle Protein (“HsRXRβ-EF-LmUSP-EF”; SEQ ID NO: 4) were fused to the transactivation domain from VP16 (“VP16AD”; SEQ ID NO: 5) and placed under the control of an elongation factor-1α promoter (“EF-1α”; SEQ ID NO: 20). Five consensus GAL4 response element binding sites (“5× GAL4RE”; comprising 5 copies of a GAL4RE comprising SEQ ID NO: 7) were fused to a synthetic TATA minimal promoter (SEQ ID NO: 21) and placed upstream of the luciferase reporter gene (SEQ ID NO: 9).
# CHO cells were transiently transfected with transcription cassettes for GAL4 DBD (1-147) CfEcR(DEF) and for VP16AD βRXREF-LmUSPEF controlled by ubiquitously active cellular promoters (PGK and EF-1α, respectively) on a single plasmid. Stably transfected cells were selected by Zeocin resistance. Individually isolated CHO cell clones were transiently transfected with a GAL4 RE-luciferase reporter (pFR Luc). 27-63 clone was selected using Hygromycin.
# Cells were trypsinized and diluted to a concentration of 2.5×10^4 cells mL. 100 μL of cell suspension was placed in each well of a 96 well plate and incubated at 37° C. under 5% CO2 for 24 h. Ligand stock solutions were prepared in DMSO and diluted 300 fold for all treatments. Dose response testing consisted of 8 concentrations ranging from 33 μM to 0.01 μM.
# (§1) Luciferase reporter gene expression was measured 48 h after cell treatment using Bright-Glo™ Luciferase Assay System from Promega (E2650). Luminescence was detected at room temperature using a Dynex MLX microtiter plate luminometer.
# (§2) Each assay was conducted in two separate wells, and the two values were averaged. Fold inductions were calculated by dividing relative light units (“RLU”) in ligand treated cells with RLU in DMSO treated cells.
# Gal4DBD/AaEcR (DEF) = target: T1, Gal4DBD/AaEcR (DEF) (Aedes aegypti, UniProt P49880); assay: cell-based; type: cell-based; details: 33 μM; 3T3 cells; 48 h; average of two wells
# T1 construct: The wildtype D, E, and F domains from mosquito Aedes aegypti EcR; expressed in transfected cells; host or cells: 3T3 cells
# Outline: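 Mouse 3T3 cells transiently co-transfected with Gal4DBD/AaEcR (DEF) and pFRLuc (5× GAL4 response element, firefly luciferase reporter). Ligand added in serum medium 4 h after transfection; single-dose testing at 33 μM.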
# [2] = target: T2, Bombyx mori EcR (VP16-BmEcR, CVBE) (Bombyx mori, UniProt P49881); assay: Z3 assay (HEK-293 clone Z3 with CVBE and 6x EcRE LacZ, β-galactosidase reporter); type: cell-based; details: 48 h, average of two wells
# T2 construct: expressed in transfected cells
# T2 sequence (P49881 86-606): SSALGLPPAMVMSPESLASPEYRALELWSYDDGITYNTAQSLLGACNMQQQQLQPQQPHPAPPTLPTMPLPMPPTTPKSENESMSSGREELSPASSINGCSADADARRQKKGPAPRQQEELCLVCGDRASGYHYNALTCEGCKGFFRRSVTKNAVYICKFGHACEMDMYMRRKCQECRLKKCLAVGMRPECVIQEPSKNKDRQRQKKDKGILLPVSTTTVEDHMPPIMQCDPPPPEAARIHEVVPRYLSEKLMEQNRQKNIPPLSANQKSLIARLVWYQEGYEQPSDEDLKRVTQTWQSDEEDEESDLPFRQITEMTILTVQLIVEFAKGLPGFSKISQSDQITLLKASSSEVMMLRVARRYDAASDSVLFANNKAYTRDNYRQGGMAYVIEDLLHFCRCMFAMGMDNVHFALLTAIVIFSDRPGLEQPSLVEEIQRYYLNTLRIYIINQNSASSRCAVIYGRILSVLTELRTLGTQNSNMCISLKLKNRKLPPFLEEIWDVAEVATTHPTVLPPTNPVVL
# CfEcR + LmUSP = CfEcR + LmUSP in 3T3 cells, reporter assayed 48 h after ligand
# Protocol: 1.9—Gal4CfEcR-DEF/VP16LmRXR-EF: This construct was prepared in the same way as switch 1.1 except LmRXR-EF (SEQ ID NO: 18) was used in place of HsRXRβ-LmRXREF chimera.
# (§3) To determine if any of the compounds shown in Table 1 and Table 2 can act as inducers of reporter gene activity in a transactivation assay, these compounds were tested in NIH3T3 cells transfected with pFRLUC reporter and gene expression cassettes, 1.1 to 1.8 described in Example 1. […] At 48 hr after adding ligand, the cells were harvested and reporter activity was assayed using Dual Luciferase assay kit (Promega carporation). Total relative light units (RLU) are shown. Standard methods for culture and maintenance of the cells were followed.
# (§4) Transfections: DNAs corresponding to the various switch constructs outlined in Example I, specifically switches 1.1 through 1.8, were transfected into mouse NIH3T3 cells (ATCC) as follows. Cells were harvested when they reached 50% confluency and plated in 6-, 12- or 24-well plates at 125,000, 50,000, or 25,000 cells, respectively, in 2.5, 1.0, or 0.5 ml of growth medium containing 10% fetal bovine serum (FBS), respectively. The next day, the cells were rinsed with growth medium and transfected for four hours. […] For 12-well plates, 4 μl of Superfect™ was mixed with 100 μl of growth medium. 1.0 μg of reporter construct and 0.25 μg of each receptor construct of the receptor pair to be analyzed were added to the transfection mix. A second reporter construct was added [pTKRL (Promega), 0.1 μg/transfection mix] that comprises a Renilla luciferase gene operably linked and placed under the control of a thymidine kinase (TK) constitutive promoter and was used for normalization. The contents of the transfection mix were mixed in a vortex mixer and let stand at room temperature for 30 min. At the end of incubation, the transfection mix was added to the cells maintained in 400 μl growth medium. The cells were maintained at 37° C. and 5% CO2 for four hours. At the end of incubation, 500 μl of growth medium containing 20% FBS and either dimethylsulfoxide (DMSO; control) or a DMSO solution of 0.1, 1, and 10 μM ligand was added and the cells were maintained at 37° C. and 5% CO2 for 48 hours. The cells were harvested and reporter activity was assayed. The same procedure was followed for 6 and 24 well plates as well except all the reagents were doubled for 6 well plates and reduced to half for 24-well plates.
# (§5) Ligands: All ligands were dissolved in DMSO and the final concentration of DMSO was maintained at 0.1% in both controls and treatments.
# (§6) Reporter Assays: Cells were harvested 48 hours after adding ligands. 125, 250, or 500 μl of passive lysis buffer (part of Dual-luciferase™ reporter assay system from Promega Corporation) were added to each well of 24- or 12- or 6-well plates respectively. The plates were placed on a rotary shaker for 15 minutes. Twenty μl of lysate were assayed. Luciferase activity was measured using Dual-luciferase™ reporter assay system from Promega Corporation following the manufacturer's instructions.
# DmEcR + LmUSP = target: T3, DmEcR + LmUSP (Drosophila melanogaster, UniProt P34021); details: DmEcR + LmUSP in 3T3 cells, reporter assayed 48 h after ligand
# T3 sequence (P34021 342-878): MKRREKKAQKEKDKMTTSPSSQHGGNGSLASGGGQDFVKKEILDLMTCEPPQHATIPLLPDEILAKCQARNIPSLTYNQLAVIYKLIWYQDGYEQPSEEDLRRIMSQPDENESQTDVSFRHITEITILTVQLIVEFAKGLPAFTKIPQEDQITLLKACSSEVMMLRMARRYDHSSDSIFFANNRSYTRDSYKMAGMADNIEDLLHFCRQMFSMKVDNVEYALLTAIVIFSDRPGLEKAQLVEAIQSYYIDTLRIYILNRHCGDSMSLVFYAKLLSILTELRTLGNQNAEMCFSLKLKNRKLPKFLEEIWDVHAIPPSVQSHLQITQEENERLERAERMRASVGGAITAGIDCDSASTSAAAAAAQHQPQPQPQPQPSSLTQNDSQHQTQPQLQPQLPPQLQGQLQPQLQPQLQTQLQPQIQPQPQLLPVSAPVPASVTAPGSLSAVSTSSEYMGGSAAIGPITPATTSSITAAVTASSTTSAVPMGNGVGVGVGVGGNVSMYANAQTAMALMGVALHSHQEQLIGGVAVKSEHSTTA
# Protocol: as §3, §4, §5, §6
# [3] = target: T4, GAL4AaEcR-DEF/VP16HsRXRβ-EF (Aedes aegypti, UniProt P49880); assay: Transactivation reporter assay, AaEcR based switch (1.4) in NIH3T3 cells; type: cell-based; details: mammalian cells; FIGS. 2-5
# T4 construct: expressed in transfected cells; host or cells: mouse NIH3T3 cells
# T4 sequence (P49880 405-776 limits assumed): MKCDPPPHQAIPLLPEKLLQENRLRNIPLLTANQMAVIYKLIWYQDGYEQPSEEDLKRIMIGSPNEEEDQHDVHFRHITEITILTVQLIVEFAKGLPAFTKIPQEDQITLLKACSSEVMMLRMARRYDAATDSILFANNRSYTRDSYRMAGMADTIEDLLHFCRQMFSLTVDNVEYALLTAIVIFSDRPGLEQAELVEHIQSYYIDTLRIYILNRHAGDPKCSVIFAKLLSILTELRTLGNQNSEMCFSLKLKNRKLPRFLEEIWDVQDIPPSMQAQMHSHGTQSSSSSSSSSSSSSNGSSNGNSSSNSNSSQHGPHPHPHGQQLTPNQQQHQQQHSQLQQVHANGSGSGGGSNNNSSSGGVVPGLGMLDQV
# T4 sequence (P28702 299-533 partner limits assumed): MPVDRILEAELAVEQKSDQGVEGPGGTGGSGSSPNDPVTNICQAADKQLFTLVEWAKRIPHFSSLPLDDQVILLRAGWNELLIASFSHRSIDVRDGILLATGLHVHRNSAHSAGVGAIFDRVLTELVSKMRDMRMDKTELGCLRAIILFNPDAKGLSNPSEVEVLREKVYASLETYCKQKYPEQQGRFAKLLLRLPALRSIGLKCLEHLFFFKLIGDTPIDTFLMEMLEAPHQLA
# Protocol: Total relative light units (RLU) are shown.
# Twenty μl of lysate were assayed.
# [4] = test system: GAL4 DBD-CfEcR(DEF)/VP16AD-MmRXRE; details: CHO 13B3 clone, 48 h, average of two wells
# Text: GAL4 DBD-CfEcR(DEF)/VP16AD-MmRXRE: The wild-type D, E, and F domains from spruce budworm Choristoneura fumiferana EcR (“CfEcR-DEF”; SEQ ID NO: 1) were fused to a GAL4 DNA binding domain (“Gal4DBD1-147”; nucleotides 31 to 471 of SEQ ID NO: 2) and placed under the control of the SV40e promoter of pM vector (PT3119-5, Clontech, Palo Alto, Calif.). The D and E domains from Mus Musculus RXR (“MmRXR-DE”; SEQ ID NO: 22) were fused to the transactivation domain from VP16 (“VP16AD”; SEQ ID NO: 5) and placed under the control of the SV40e promoter of the pVP16 vector (PT3127-5, Clontech, Palo Alto, Calif.).
# CHO cells were transiently transfected with transcription cassettes for GAL4 DBD-CfEcR(DEF) and for VP16AD-MmRXRE controlled by SV40e promoters. Stably transfected cells were selected using Hygromycin. Individually isolated CHO cell clones were transiently transfected with a GAL4 RE-luciferase reporter (pFR-Luc, Stratagene, La Jolla, Calif.). The 13B3 clone was selected using Zeocin.
# Cells were trypsinized and diluted to a concentration of 2.5×10^4 cells mL. 100 μL of cell suspension was placed in each well of a 96 well plate and incubated at 37° C. under 5% CO2 for 24 h. Ligand stock solutions were prepared in DMSO and diluted 300 fold for all treatments.
# as §1, §2
Structure (SMILES),"Fold Induction Average, 27-63V1 Assay 33 μM [1]","Fold Induction Average, AA_3T3V1 Assay 33 μM (Gal4DBD/AaEcR (DEF))","Fold Induction Average, Z3V1 Assay 33 μM [2]",Fold Induction (10 μM) (CfEcR + LmUSP),Fold Induction (10 μM) (DmEcR + LmUSP),Fold Induction (100 μM) (DmEcR + LmUSP),Activity on AaEcR based switches [3],"Fold Induction Average, 13B3V1 Assay 33 μM [4]"
CC1CC(Nc2ccccc2)c2ccccc2N1C(=O)c1ccno1 (stereo not drawn) [Compound I-104],1 fold,347 fold,1 fold,–,–,–,–,–
C[C@H]1C[C@H](Nc2ccc(F)cc2)c2cc(F)ccc2N1C(=O)c1ccc(F)cc1 (relative stereo) [Compound I-9],–,131 fold,16 fold,3 fold,9 fold,2 fold,–,–
CCNC(=O)N1c2ccccc2C(Nc2ccccc2)CC1C (stereo not drawn) [Compound I-210],1 fold,12 fold,–,–,–,–,–,–
Cc1ccc(C(=O)N2c3ccc(F)cc3[C@@H](Nc3ccc(F)cc3)C[C@@H]2C)cc1F (relative stereo) [Compound I-12],–,504 fold,169 fold,–,–,–,very active,815 fold
Cc1ccccc1NC1CC(C)N(C(=O)c2ccccc2)c2c(C)cccc21 (stereo not drawn) [Compound I-184],1 fold,1 fold,–,–,–,–,–,–
C[C@H]1C[C@@H](Nc2ccc(F)cc2)c2cc(F)ccc2N1C(=O)c1ccccc1 (relative stereo) [Compound I-10],–,164 fold,–,1 fold,1 fold,1 fold,–,–
COc1cccc(C(=O)N2c3ccc(C)cc3[C@@H](Nc3ccc(C)cc3)C[C@@H]2C)c1 (relative stereo) [Compound I-86],1 fold,2 fold,1 fold,–,–,–,–,–
C[C@H]1C[C@@H](Nc2ccc(F)cc2)c2cc(F)ccc2N1C(=O)c1ccc(F)cc1 (relative stereo) [Compound I-8],–,153 fold,–,3 fold,2 fold,7 fold,–,–
C[C@H]1C[C@H](Nc2ccc(F)cc2)c2cc(F)ccc2N1C(=O)c1ccccc1 (relative stereo) [Compound I-11],–,387 fold,32 fold,1 fold,5 fold,3 fold,–,–
C[C@H]1C[C@H](Nc2ccc(F)cc2)c2cc(F)ccc2N1C(=O)c1ccc(C(F)(F)F)c(F)c1 (relative stereo) [Compound I-27],–,112 fold,119 fold,–,–,–,–,6 fold
C[C@H]1C[C@@H](Nc2ccccc2)c2ccccc2N1C(=O)c1ccc2c(c1)OCO2 (relative stereo) [Compound I-31],–,48 fold,1 fold,–,–,–,–,1 fold
COC(=O)c1ccc(C(=O)N2c3ccc(F)cc3C(Nc3ccc(F)cc3)CC2C)cc1 (stereo not drawn) [Compound I-94],32 fold,798 fold,48 fold,–,–,–,–,–
COc1ccc(C(=O)N2c3c(C)cccc3C(Nc3ccccc3C)CC2C)cc1 (stereo not drawn) [Compound I-135],3 fold,1 fold,1 fold,–,–,–,–,1 fold
CC1CC(Nc2ccccc2)c2ccccc2N1C(=O)COc1ccc(Cl)cc1 (stereo not drawn) [Compound I-180],–,9 fold,1 fold,–,–,–,–,1 fold
